Structures can show the parent of a compound that is named as a salt.
Biological target: SARS-CoV-2 Mac1 (Severe acute respiratory syndrome coronavirus 2, UniProt P0DTD1)
Assay: biochemical
Settings: for inhibition at 100 µM: read-out: %inhibition; for %inhibition: 100 µM, inhibitor

| Compound | inhibition at 100 µM | %inhibition |
| --- | --- | --- |
| CNC(=C[N+](=O)[O-])NCCSCc1csc(CN(C)C)n1 [Nizatidine] | 46.1% | – |
| CCCCCCCCC(=O)NCc1ccc(O)c(OC)c1 [Nonivamide] | 1.16% | – |
| NC[C@H](O)c1ccc(O)c(O)c1 [Noradrenaline bitartrate monohydrate] | 18.9% | – |
| C#C[C@]1(O)CC[C@H]2[C@@H]3CCC4=CC(=O)CC[C@@H]4[C@H]3CC[C@@]21C [Norethindrone] | 0% | – |
| CCn1cc(C(=O)O)c(=O)c2cc(F)c(N3CCNCC3)cc21 [Norfloxacin] | 24.7% | – |
| C#CC1(O)CC[C@H]2[C@@H]3CCC4=CC(=O)CC[C@@H]4[C@H]3CC[C@@]21CC (stereo partly drawn) [Norgestrel] | 0% | – |
| CNCCC=C1c2ccccc2CCc2ccccc21 [Nortriptyline hydrochloride] | 0% | – |
| OC1C[C@H]2CC[C@@H](C1)N2 (stereo partly drawn) [Nortropine Hydrochloride] | 6.37% | – |
| CO[C@@H]1[C@@H](OC(N)=O)[C@@H](O)[C@H](Oc2ccc3c(O)c(NC(=O)c4ccc(O)c(CC=C(C)C)c4)c(=O)oc3c2C)OC1(C)C [Novobiocin Sodium] | 0% | – |
| CC[C@H]1[C@@H](O)[C@@H]2[C@H](CC[C@]3(C)[C@@H]([C@H](C)CCC(=O)O)CC[C@@H]23)[C@@]2(C)CC[C@@H](O)C[C@@H]12 [Obeticholic Acid] | 37.3% | – |
| CNS(=O)(=O)C[C@H]1CC[C@H](N(C)c2[nH]cnc3nccc2-3)CC1 [Oclacitinib?maleate] | 0% | – |
| CCCCCCCCN=c1ccn(CCCCCCCCCCn2ccc(=NCCCCCCCC)cc2)cc1 [Octenidine Dihydrochloride] | 16% | – |
| CCCCC(CC)COC(=O)C=Cc1ccc(OC)cc1 (stereo not drawn) [Octinoxate] | 0% | – |
| CCCCC(CC)COC(=O)C(C#N)=C(c1ccccc1)c1ccccc1 (stereo not drawn) [Octocrylene] | 0% | – |
| O=C(c1cc(Cc2n[nH]c(=O)c3ccccc23)ccc1F)N1CCN(C(=O)C2CC2)CC1 [Olaparib (AZD2281, Ku-0059436)] | 20.2% | – |
| CCCc1nc(C(C)(C)O)c(C(=O)OCc2oc(=O)oc2C)n1Cc1ccc(-c2ccccc2-c2nnn[nH]2)cc1 [Olmesartan Medoxomil] | 0% | – |
| CCCc1nc(C(C)(C)O)c(C(=O)O)n1Cc1ccc(-c2ccccc2-c2nnn[nH]2)cc1 [Olmesartan] | 0% | – |
| C=CC(=O)Nc1cccc(Oc2nc(Nc3ccc(N4CCN(C)CC4)cc3)nc3ccsc23)c1 [Olmutinib (HM61713, BI 1482694)] | 22.3% | – |
| CN(C)CC/C=C1/c2ccccc2COc2ccc(CC(=O)O)cc21 [Olopatadine HCl] | 2.14% | – |
| Cc1[nH]c(=O)c(C#N)cc1-c1ccc2nccn2c1 [Olprinone] | 0% | – |
| O=C(O)c1cc(/N=N/c2ccc(O)c(C(=O)O)c2)ccc1O [Olsalazine Sodium] | 11.8% | – |
| Cc1c(-c2cnccn2)ssc1=S [Oltipraz] | 0% | – |
| CS(=O)(=O)n1cc2c(n1)CN([C@H]1CO[C@H](c3cc(F)ccc3F)[C@@H](N)C1)C2 [Omarigliptin (MK-3102)] | 0% | – |
| COc1ncc(-c2ccc3nccc(-c4ccnnc4)c3c2)cc1NS(=O)(=O)c1ccc(F)cc1F [Omipalisib (GSK2126458, GSK458)] | 7.47% | – |
| CC(C)c1cc(C(=O)N2Cc3ccc(CN4CCN(C)CC4)cc3C2)c(O)cc1O [Onalespib (AT13387)] | 5.85% | – |
| Cc1nccn1CC1CCc2c(c3ccccc3n2C)C1=O (stereo not drawn) [Ondansetron Hydrochloride Dihydrate] | 0% | – |
| Cc1[nH]c(/C=C2\C(=O)Nc3ccccc32)c(C)c1CCC(=O)O [Orantinib (TSU-68, SU6668)] | 16.7% | – |

| Compound | inhibition at 100 µM | %inhibition |
| --- | --- | --- |
| CCCCCCCCCCC[C@@H](C[C@@H]1OC(=O)[C@H]1CCCCCC)OC(=O)[C@H](CC(C)C)NC=O [Orlistat] | 0% | – |
| Cc1ncc([N+](=O)[O-])n1CC(O)CCl (stereo not drawn) [Ornidazole] | 17.6% | – |
| O=C(O)c1cc(=O)[nH]c(=O)[nH]1 [Orotic acid (6-Carboxyuracil)] | 0% | – |
| CCOC(=O)C1=C[C@@H](OC(CC)CC)[C@H](NC(C)=O)[C@@H](N)C1 [Oseltamivir Phosphate] | – | 4.261% |
| C=CC(=O)Nc1cc(Nc2nccc(-c3cn(C)c4ccccc34)n2)c(OC)cc1N(C)CCN(C)C [Osimertinib (AZD9291)] | 0% | – |
| OCCOc1ccc(/C(=C(/CCCl)c2ccccc2)c2ccccc2)cc1 [Ospemifene] | 16.8% | – |
| CCNC1(C(N)=O)CCN(c2ncnc3c2nc(-c2ccccc2Cl)n3-c2ccc(Cl)cc2)CC1 [Otenabant (CP-945598) HCl] | 2.29% | – |
| CCCCCCCCOc1ccccc1C(=O)Nc1ccc(C(=O)OCC[N+](C)(CC)CC)cc1 [Otilonium Bromide] | 11% | – |
| C[C@@H]1O[C@@H](O[C@H]2C[C@@H](O)[C@]3(CO)[C@H]4[C@H](O)C[C@]5(C)[C@@H](C6=CC(=O)OC6)CC[C@]5(O)[C@@H]4CC[C@]3(O)C2)[C@H](O)[C@H](O)[C@H]1O [Ouabain] | 0% | – |
| CC(=O)N1C[C@H](O)C[C@H]1C(=O)O [Oxaceprol] | 0% | – |
| Cc1onc(-c2ccccc2)c1C(=O)N[C@@H]1C(=O)N2[C@@H]1SC(C)(C)[C@@H]2C(=O)O [Oxacillin sodium monohydrate] | 0% | – |
| O=C(O)CCc1nc(-c2ccccc2)c(-c2ccccc2)o1 [Oxaprozin] | 11.8% | – |
| NC(=O)N1c2ccccc2CC(=O)c2ccccc21 [Oxcarbazepine] | 0% | – |
| CCN(CC)CCOCCOC(=O)C(CC)(CC)c1ccccc1 [Oxeladin Citrate] | 0.462% | – |
| CN(C(=O)CN(CCO)CC(=O)N(C)C(C)(C)Cc1ccccc1)C(C)(C)Cc1ccccc1 [Oxethazaine] | 19.2% | – |
| COC(=O)Nc1nc2cc([S+]([O-])c3ccccc3)ccc2[nH]1 (stereo not drawn) [Oxfendazole] | 0% | – |
| NCCc1cc(O)c(O)cc1O [Oxidopamine (hydrobromide)] | 0% | – |
| NC(=O)CN1CC(O)CC1=O (stereo not drawn) [Oxiracetam] | 21.6% | – |
| COc1ccc(C(=O)c2ccccc2)c(O)c1 [Oxybenzone] | 0.0343% | – |
| CCCCOc1cc(C(=O)OCCN(CC)CC)ccc1N [Oxybuprocaine HCl] | 8.43% | – |
| O=C(Nc1cc(Cl)cc(Cl)c1O)c1c(O)c(Cl)cc(Cl)c1Cl [Oxyclozanide] | 8.75% | – |
| CN(C)[C@@H]1C(=O)C(C(N)=O)=C(O)[C@@]2(O)C(=O)C3=C(O)c4c(O)cccc4[C@@](C)(O)C3[C@H](O)C12 (stereo partly drawn) [Oxytetracycline (Terramycin)] | 15.9% | – |
| CN(C)[C@@H]1C(O)=C(C(N)=O)C(=O)[C@@]2(O)C(O)=C3C(=O)c4c(O)cccc4[C@@](C)(O)[C@H]3[C@H](O)[C@@H]12 [Oxytetracycline Dihydrate] | 0% | – |
| O=C(O)/C=C/c1ccc(Cn2ccnc2)cc1 [Ozagrel HCl] | – | 0% |
| O=C(O)/C=C/c1ccc(Cn2ccnc2)cc1 [Ozagrel sodium] | – | 1.667% |
| O=C(O)/C=C/c1ccc(Cn2ccnc2)cc1 [Ozagrel] | – | 4.368% |
| CC(C)Oc1ccc(-c2nc(-c3cccc4c3CC[C@@H]4NCCO)no2)cc1C#N [Ozanimod (RPC1063)] | 0% | – |

Source: article doi:10.1101/2021.10.07.463234v2 (biorxiv, 2021)
